IC50 and inhibition data for 42 molecules are collected here from patent US8168651B2, “Protein kinase modulators” (Cylene Pharmaceuticals, Inc., priority 2008, dated 2012).

Where only a bound is given, the exact number is not on record here.

In assay [1] the test system is Jurkat. Kind of assay: Cell proliferation modulatory activity, Jurkat. It counts as cell-based. The conditions noted are these: Homo sapiens.
Assay [2] addresses recombinant human PIM1 (Homo sapiens (Human), UniProt P11309). Description: PIM-1 kinase activity in cell-free in vitro assay. The class given is biochemical. Particulars: cell-free assay; for inhibition at 0.5 µM: 500 nM compound, read-out: PIM-1: % inh 500 nM.
Assay [3] has as its system MV-4-11. Description: Cell proliferation modulatory activity, MV-4-11. The class given is cell-based. Particulars: Homo sapiens, MV4-11; MV-4-11 cells.
Assay [4] relates to HCT-116 human colorectal carcinoma cells. Description: Cell-proliferation assay using Alamar Blue dye.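 Further: cells exposed to compound for about 4 days, then Alamar Blue added and dye fluorescence read after about 4 h, compared with medium-only control wells.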 It counts as cell-based. The conditions noted are these: Homo sapiens, HCT-116, second HCT-116 column (c8); read-out: HCT-116 (uM) cell proliferation modulatory activity.
Assay [5] deals with K-562. Description: Cell proliferation modulatory activity, K-562. Particulars: Homo sapiens, K562; K-562 cells. The class given is cell-based.
The target of assay [6] is recombinant human CK2 (Homo sapiens (Human), UniProt P68400). Kind of assay: CK2 assay (cell-free, 33P-ATP filter plate). It counts as biochemical. Particulars: 500 nM compound, cell-free assay; read-out: CK2: % inh 500 nM.
Chain of recombinant human CK2 (P68400 whole entry): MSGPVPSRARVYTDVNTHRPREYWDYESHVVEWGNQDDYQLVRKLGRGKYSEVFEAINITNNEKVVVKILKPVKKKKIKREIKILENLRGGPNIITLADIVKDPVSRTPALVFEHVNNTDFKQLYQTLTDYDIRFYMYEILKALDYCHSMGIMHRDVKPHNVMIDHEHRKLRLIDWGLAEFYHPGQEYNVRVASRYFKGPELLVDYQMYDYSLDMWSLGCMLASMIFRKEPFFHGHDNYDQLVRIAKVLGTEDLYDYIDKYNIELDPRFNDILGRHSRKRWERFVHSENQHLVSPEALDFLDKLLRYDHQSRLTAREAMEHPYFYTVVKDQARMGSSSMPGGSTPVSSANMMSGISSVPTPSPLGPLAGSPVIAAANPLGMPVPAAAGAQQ
Chain of recombinant human CK2 (P67870 whole entry partner): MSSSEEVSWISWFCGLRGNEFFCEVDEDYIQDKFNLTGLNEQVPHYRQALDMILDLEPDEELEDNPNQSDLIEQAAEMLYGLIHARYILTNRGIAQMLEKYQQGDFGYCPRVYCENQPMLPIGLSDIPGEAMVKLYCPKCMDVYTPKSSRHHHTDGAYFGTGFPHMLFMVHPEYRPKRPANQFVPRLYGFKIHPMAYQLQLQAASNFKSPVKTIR

Chain of recombinant human PIM1 (P11309 whole entry): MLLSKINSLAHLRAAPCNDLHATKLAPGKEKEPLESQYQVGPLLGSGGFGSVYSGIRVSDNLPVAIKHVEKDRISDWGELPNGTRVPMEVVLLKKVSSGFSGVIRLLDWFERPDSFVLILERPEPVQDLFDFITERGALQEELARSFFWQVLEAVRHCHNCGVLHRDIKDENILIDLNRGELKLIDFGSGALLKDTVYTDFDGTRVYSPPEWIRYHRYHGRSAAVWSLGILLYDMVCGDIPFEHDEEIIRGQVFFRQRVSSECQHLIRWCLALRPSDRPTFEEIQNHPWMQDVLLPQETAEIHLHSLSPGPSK

Regarding `O=C(NC1CC1)c1ccc2c(c1)nc(Nc1cccc(C(F)(F)F)c1)c1nc(NC3CC3)ncc12`, the IC50 in assay [1] was 3.92 µM. Moreover, in assay [2], the inhibition at 0.5 µM was 16.7%.

The molecule `O=C(O)c1ccc2c(c1)nc(Nc1cc(F)cc(F)c1)c1nc(NC3CC3)ncc12` displayed an IC50 in assay [1] of 6.02 µM. Besides, in assay [2], the inhibition at 0.5 µM is 48.9%.

With `CN(C)CCNc1ncc2c(n1)c(Nc1ccc(F)c(Cl)c1)nc1cc(C(=O)O)ccc12`, the IC50 in assay [1] came out at 1.25 µM. Moreover, the inhibition at 0.5 µM in assay [2] worked out at 53%.

As for `C#Cc1cccc(Nc2nc3cc(C(=O)O)ccc3c3cnc(NCCCOCC)nc23)c1`, in assay [1], the IC50 is 0.389 µM. The inhibition at 0.5 µM in assay [2] was 2.19%.

In turn, `CCOC(=O)CCNC(=O)c1ccc2c(c1)nc(Nc1cccc(C(F)(F)F)c1)c1nc(NC3CC3)ncc12` displayed an IC50 in assay [1] of 7.24 µM. Further, in assay [2], the inhibition at 0.5 µM came out at 10.5%.

Turning to `COC(CNc1ncc2c(n1)c(Nc1ccc(F)c(Cl)c1)nc1cc(C(=O)O)ccc12)OC`, the IC50 in assay [1] was 1.12 µM. The inhibition at 0.5 µM in assay [2] was 57.6%.

In turn, `C#Cc1cccc(Nc2nc3cc(C(=O)O)ccc3c3cnc(NCCC)nc23)c1` returned an IC50 in assay [1] of 2.67 µM. In addition, the inhibition at 0.5 µM in assay [2] amounted to 45.6%.

In turn, `CC1CCCCN1CCCNc1ncc2c(n1)c(Nc1ccc(F)c(Cl)c1)nc1cc(C(=O)O)ccc12` (stereo not shown) [drawing 1629] registered an IC50 in assay [1] of 2.86 µM. Moreover, the inhibition at 0.5 µM in assay [2] was 38.9%.

Molecule `CNC(=O)c1ccc2c(c1)nc(Nc1cccc(C(F)(F)F)c1)c1nc(NC3CC3)ncc12` showed an IC50 in assay [1] of 3.65 µM. Also, the inhibition at 0.5 µM in assay [2] came out at 16.2%.

For the molecule `O=C(O)c1ccc2c(c1)nc(Nc1ccccc1)c1nc(Nc3ccccc3)ncc12`, the IC50 in assay [1] was 8.98 µM. In addition, the inhibition at 0.5 µM in assay [2] is 13%.

In turn, `COC(=O)c1ccc2c(c1)nc(Nc1cccc(Cl)c1)c1nc(NCCC(N)=O)ncc12` showed an IC50 in assay [1] of 4.41 µM. Further, in assay [2], the inhibition at 0.5 µM was -12.6%.

In turn, `C#Cc1cccc(Nc2nc3cc(C(=O)O)ccc3c3cnc(NCCCOC(C)C)nc23)c1` showed an IC50 in assay [1] of 2.37 µM. In addition, the inhibition at 0.5 µM in assay [2] was -1.78%.

For the molecule `COc1cccc(Nc2nc3cc(C(=O)O)ccc3c3cnc(NC4CC4)nc23)c1`, the IC50 in assay [1] was 3.44 µM. For the same molecule, the inhibition at 0.5 µM in assay [2] was determined as 36.5%.

With `O=C(O)c1ccc2c(c1)nc(NC1CC1)c1nc(NCCO)ncc12`, the IC50 in assay [1] is > 50 µM. The inhibition at 0.5 µM in assay [2] was determined as 22.4%.

Molecule `CCNc1ncc2c(n1)c(Nc1cccc(Cl)c1)nc1cc(C(=O)O)ccc12` had an IC50 in assay [1] of 3.06 µM.

Consider `NC(=O)CCNc1ncc2c(n1)c(Nc1cccc(Cl)c1)nc1cc(C(=O)O)ccc12`, for which, in assay [1], the IC50 was determined as 37.7 µM.

Regarding `O=C(O)c1ccc2c(c1)nc(Nc1cccc(C(F)(F)F)c1)c1ncncc12`, the IC50 in assay [1] is 2.53 µM.

In the case of `C#Cc1cccc(Nc2nc3cc(C(=O)O)ccc3c3ccncc23)c1`, the inhibition at 0.5 µM turned out to be 46.6% in assay [2] and 72.4% in assay [6]. The IC50 in assay [3], in assay [4] and in assay [5] was > 10 µM each time.

On to `CN(C)CCNc1nc2cc(C(=O)N(C)C)ccc2c2sccc12`, for which the values for the inhibition at 0.5 µM in assay [2] and in assay [6] were -3.56% and 11.8%, respectively. Also, the IC50 was 0.999 µM in assay [3], > 10 µM in assay [4] and > 10 µM in assay [5].

Turning to `CN(C)CCCNc1nc2cc(C#N)ccc2c2sccc12`, the results for the inhibition at 0.5 µM in assay [2] and in assay [6] were 23.8% and -30.5%, respectively. Also, the IC50 is 7.81 µM in assay [3], 3.37 µM in assay [4] and > 10 µM in assay [5].

With `N#Cc1ccc2c(c1)nc(N1CCNCC1)c1ccsc12`, the inhibition at 0.5 µM in assay [2] was 7.88%; in assay [6], -27.3%. For the same molecule, the results for the IC50 in assay [3], in assay [4] and in assay [5] were 9.33 µM, 4.09 µM and > 10 µM, respectively.

`O=C(O)c1ccc2c(c1)nc(Nc1cccc(Cl)c1)c1cccnc12`: the inhibition at 0.5 µM in assay [2] turned out to be 59.9%; in assay [6] it was 61.1%. In addition, the IC50 in assay [2] was 0.634 µM; in assay [3], > 10 µM; in assay [4] it was > 10 µM; in assay [5], > 10 µM.

On to `c1cc2c(NC3CCNCC3)nc3cc(-c4nnn[nH]4)ccc3c2s1`, for which the inhibition at 0.5 µM is 85.7% in assay [2] and -21.2% in assay [6]. Also, the IC50 is 0.078 µM in assay [2], > 10 µM in assay [3], > 10 µM in assay [4] and > 10 µM in assay [5].

Turning to `CC(C)c1cccc(Nc2nc3cc(C(=O)O)ccc3c3cnccc23)c1`, the inhibition at 0.5 µM in assay [2] came to 72.4%; in assay [6], 99.5%. The IC50 in assay [2] is 0.485 µM; in assay [3], 3.16 µM; in assay [4], > 10 µM; in assay [5] it was > 10 µM.

On to `N#Cc1ccc2c(c1)nc(N1CCN(c3ccccn3)CC1)c1ccsc12`, for which the inhibition at 0.5 µM in assay [2] came out at 11%; in assay [6] it was 7.66%. Further, the IC50 in assay [3], in assay [4] and in assay [5] was > 10 µM in each case.

For `CC(C)(C)OC(=O)N1CCCC1CCNc1nc2cc(C#N)ccc2c2sccc12` (stereo not shown), the figures for the inhibition at 0.5 µM in assay [2] and in assay [6] were -13% and -22.4%, respectively. Moreover, the IC50 in assay [3], in assay [4] and in assay [5] was > 10 µM in each case.

On to `N#Cc1ccc2c(c1)nc(Nc1cccc(Cl)c1)c1cscc12`, for which the inhibition at 0.5 µM in assay [2] is -32.8%; in assay [6], -9.4%. The IC50 in assay [3], in assay [4] and in assay [5] was > 10 µM each time.

For the molecule `Fc1ccc(Nc2nc3cc(-c4nnn[nH]4)ccc3c3cscc23)cc1Cl`, the inhibition at 0.5 µM in assay [2] was determined as 14.2%; in assay [6] it was 51.1%. In addition, the figures for the IC50 in assay [3], in assay [4] and in assay [5] were 5.71 µM, > 10 µM and > 10 µM, respectively.

For `O=C(O)c1ccc2c(c1)nc(Nc1ccc3cn[nH]c3c1)c1ccncc12`, the inhibition at 0.5 µM in assay [2] is 75.1%; in assay [6] it was 101%. Besides, the IC50 in assay [2] was 0.228 µM; in assay [3] it was > 10 µM; in assay [4], > 10 µM; in assay [5], > 10 µM.

As for `Cc1c(-c2ccccc2)nn(C)c1Nc1nc2cc(C(=O)O)ccc2c2cnccc12`, the values for the inhibition at 0.5 µM in assay [2] and in assay [6] were 26.2% and 76.2%, respectively. The results for the IC50 in assay [3], in assay [4] and in assay [5] were 1.43 µM, 2.34 µM and > 10 µM, respectively.

`CCN(c1ccccc1)c1nc2cc(C(=O)O)ccc2c2cnccc12`: the inhibition at 0.5 µM in assay [2] is 28%; in assay [6], 91.8%. Further, the IC50 in assay [3] is > 10 µM; in assay [4], > 10 µM; in assay [5], 0.339 µM.

As to `N#Cc1ccc2c(c1)nc(Nc1ccc(F)cc1)c1cscc12`, the inhibition at 0.5 µM in assay [2] was -6.77%; in assay [6] it was 9.21%. Further, the IC50 in assay [3], in assay [4] and in assay [5] was > 10 µM each time.

As to `N#Cc1ccc2c(c1)nc(Cl)c1cscc12`, the figures for the inhibition at 0.5 µM in assay [2] and in assay [6] were -20.3% and -6.52%, respectively. In addition, the IC50 in assay [3] is 1.81 µM; in assay [4], > 10 µM; in assay [5], > 10 µM.

For the molecule `Nc1ccc(CCNc2nc3cc(C(=O)O)ccc3c3cnccc23)cc1`, the results for the inhibition at 0.5 µM in assay [2] and in assay [6] were 81.8% and 100%, respectively. Besides, the IC50 is 0.321 µM in assay [2], > 10 µM in assay [3], > 10 µM in assay [4] and > 10 µM in assay [5].

As for `CC1(C)CC(Nc2nc3cc(-c4nnn[nH]4)ccc3c3sccc23)CC(C)(C)N1`, the results for the inhibition at 0.5 µM in assay [2] and in assay [6] were 32.7% and -5.33%, respectively. Further, the IC50 in assay [3], in assay [4] and in assay [5] was > 10 µM each time.

Take `CCn1c2ccccc2c2cc(Nc3nc4cc(C(=O)O)ccc4c4cnccc34)ccc21`: the inhibition at 0.5 µM in assay [2] was found to be 32.6%; in assay [6], 98.1%. The IC50 in assay [3] was found to be 3.28 µM; in assay [4] it was 9.82 µM; in assay [5], 0.11 µM.

For `CNc1ncc2c(n1)c(N(C)c1ccccc1)nc1cc(C(=O)O)ccc12`, the figures for the inhibition at 0.5 µM in assay [2] and in assay [6] were 86.6% and 94.5%, respectively. Further, the IC50 was 0.147 µM in assay [2], > 10 µM in assay [3], > 10 µM in assay [4] and > 10 µM in assay [5].

As to `CC1(C)CC(Nc2nc3cc(C#N)ccc3c3sccc23)CC(C)(C)N1`, the inhibition at 0.5 µM in assay [2] is -1.38%; in assay [6], -3.98%. In addition, the results for the IC50 in assay [3], in assay [4] and in assay [5] were 9.88 µM, 6.75 µM and > 10 µM, respectively.

Take `N#Cc1ccc2c(c1)nc(Nc1ccc(F)c(Cl)c1)c1cscc12`: the inhibition at 0.5 µM in assay [2] was -26.3%; in assay [6], -8.36%. Further, the IC50 in assay [3], in assay [4] and in assay [5] was > 10 µM each time.

Turning to `CNc1ccc(C#N)cc1Nc1nc2cc(C(=O)O)ccc2c2cnccc12`, the values for the inhibition at 0.5 µM in assay [2] and in assay [6] were 19% and 65%, respectively. Further, the IC50 in assay [3] was 6.15 µM; in assay [4], > 10 µM; in assay [5] it was > 10 µM.

Consider `CC(C)(C)OC(=O)NC1CCN(c2nc3cc(C#N)ccc3c3sccc23)C1` (stereo not shown), for which the values for the inhibition at 0.5 µM in assay [2] and in assay [6] were 10% and 11%, respectively. Further, the IC50 in assay [3], in assay [4] and in assay [5] was > 10 µM throughout.

On to `CCCNc1nc2cc(-c3nnn[nH]3)ccc2c2sccc12`, for which the inhibition at 0.5 µM in assay [2] was determined as 59.1%; in assay [6], 31.1%. In addition, the IC50 in assay [2] was > 1.1 µM; in assay [3], > 10 µM; in assay [4], > 10 µM; in assay [5], > 10 µM.
